Patent US10519116B2, “Water-soluble pyrazole derivatives as corrosion inhibitors” (Ecolab USA Inc., priority 2015, dated 2019)
Values after ≈ are worked out from the molar mass of the structure shown.

Key:
[1] = Copper corrosion rate by linear polarization resistance measurements; settings: copper coupons, 5 ppm inhibitor, pH 7.0, 45° C.; for No FRC Corrosion Rate: absence of bleach, average over 24 hour period; for 1 ppm FRC Corrosion Rate: bleach added to keep FRC at 1 ppm
Description: The corrosion rate of copper in the presence of (1H-pyrazol-1-yl)methanol, (3,5-dimethyl-1H-pyrazol-1-yl)methanol, (3,5-dimethyl-1H-pyrazol-1-yl)(phenyl)methanol, 1-(3,5-dimethyl-1H-pyrazol-1-yl)ethan-1-ol, 2-(1H-pyrazol-1-yl)ethan-1-ol, 3-phenyl-1H-pyrazole, 4-chloro-3,5-dimethyl-1H-pyrazole, and 3,5-dimethylpyrazole was determined using linear polarization resistance measurements. In addition, the corrosion rate of copper in the presence of pyrazole, 1-ethyl-1H-pyrazole, and tolyltriazole was determined using linear polarization resistance measurements. (1H-Pyrazol-1-yl)methanol, (3,5-dimethyl-1H-pyrazol-1-yl)methanol, (3,5-dimethyl-1H-pyrazol-1-yl)(phenyl)methanol, 4-chloro-3,5-dimethyl-1H-pyrazole, and 1-(3,5-dimethyl-1H-pyrazol-1-yl)ethan-1-ol were prepared by Applicants. Pyrazole, 3,5-dimethylpyrazole, 2-(1H-pyrazol-1-yl)ethan-1-ol, and 1-ethyl-1H-pyrazole were purchased from TCI America. 3-Phenyl-1H-pyrazole and tolyltriazole were purchased from Sigma-Aldrich (St. Louis, Mo.).
For each experiment, cylindrical copper coupons pre-polished using SIC 600 paper and fitted on a Pine rotator were immersed in a solution of corrosion inhibitor. The test solution comprised 470 ppm calcium, 230 ppm magnesium, 590 ppm chloride, 260 ppm sulfate, and 100 ppm alkalinity, as CaCO3. The pH of the test water was maintained at 7.0 using carbon dioxide, and the water temperature was maintained at 45° C. throughout the experiment.
The copper samples were immersed in 1 liter electrochemical cells comprising a 5 ppm inhibitor solution, and the Rp (polarization resistance) was recorded over a 24 hour period. The analysis was conducted using the following testing conditions: Initial E: −0.02V; Final E: +0.02V; Scan rate: 0.5 mV/s; Sample period: 1 second; Repeat time: 15 minutes; Sample area: 5 cm^2; Density: 8.92 g/cm^3; Copper Eq. Weight: 63.54 g; and Initial delay: 30 seconds.
Next, the copper samples were exposed to 1 ppm FRC by adding a few drops of 4% bleach solution to the electrolyte solution. After the FRC reached 1 ppm, the copper samples were analyzed. Throughout the analysis, the bleach solution was added intermittently to maintain the FRC at 1 ppm. The Rp in the absence and presence of bleach was collected and analyzed, and the average corrosion rate was calculated and recorded in Table 1. Corrosion rates were calculated in mils per year (mpy). FIGS. 1-3 display data plots for compounds 1, 3, 5, 6, and 9.

[2] = Turbidity of 2% aqueous solutions at various pH levels (solubility); type: physicochemical; settings: judged from turbidity at a wide range of pH levels
Description: Solutions comprising (1H-pyrazol-1-yl)methanol and 3,5-dimethylpyrazole at various pH levels were prepared by dissolving the corresponding pyrazole (2 grams) in deionized water (98 grams). The solutions were adjusted to the desired pH by adding dilute sulfuric acid or aqueous sodium hydroxide (1 N). The turbidity of each solution was measured using a HACH 2100Q Portable Turbidimeter.

[3] = test system: Pseudokirchneriella subcapita; test: Chronic 72-Hour Green Algal Growth Test; type: in vivo; settings: 72-hour chronic green algal growth test
Description: (§1) The aquatic toxicity of (1H-pyrazol-1-yl)methanol toward a variety of species was analyzed. (1H-pyrazol-1-yl)methanol had lower aquatic toxicity than many commonly used corrosion inhibitors.

[4] = Ceriodaphnia dubia 48-Hour Definitive Toxicity Test; type: in vivo; settings: Ceriodaphnia dubia, in vivo, other: aquatic exposure (compound in the test water)
Description: as §1

Ceriodaphnia dubia = test: as above; type: in vivo
Description: as §1

in vivo = settings: in vivo; 96-hour definitive toxicity test
Description: as §1

Oncorhynchus mykiss = test: in vivo; settings: 96-hour definitive toxicity test
Description: as §1

Compound	No FRC Corrosion Rate [1] [mpy]	1 ppm FRC Corrosion Rate [1] [mpy]	other results
Cc1cc(C)[nH]n1 [Compound 6, 3,5-dimethylpyrazole]	0.0396	0.0599	water solubility [2]: water soluble
Cc1n[nH]c(C)c1Cl [Compound 7, 4-chloro-3,5-dimethyl-1H-pyrazole]	0.0025	0.0212	
Cc1cc(C)n(C(C)O)n1 (centres unmarked) [Compound 3, 1-(3,5-dimethyl-1H-pyrazol-1-yl)ethan-1-ol]	0.0036	0.0142	
CCn1cccn1 [Compound 10, 1-ethyl-1H-pyrazole, reference compound]	0.0345	0.5932	
c1ccc(-c2cc[nH]n2)cc1 [Compound 8, 3-phenyl-1H-pyrazole]	0.0039	0.0916	
Cc1cc(C)n(C(O)c2ccccc2)n1 (centres unmarked) [Compound 2, (3,5-dimethyl-1H-pyrazol-1-yl)(phenyl)methanol]	0.0043	0.0479	
c1cn[nH]c1 [Compound 9, Pyrazole]	0.4232	0.1666	
OCn1cccn1 [Compound 1, (1H-pyrazol-1-yl)methanol]	0.0057	0.0296	No FRC Corrosion Rate ([1]; listed as (1H-pyrazol-1-yl)methanol): 0.0057 mpy; water solubility [2]: water soluble; IC50 [3]: 3.83 µg/mL (≈ 39 µM); NOEC (survival) [3]: 2.5 mg/L; LC50 at 48 h [4]: 31.5 µg/mL (≈ 321 µM); NOEC (survival) (Ceriodaphnia dubia): 13 mg/L; LC50 at 96 h (in vivo): > 100 µg/mL; LC50 (Oncorhynchus mykiss): >100 µg/mL; NOEC (survival) (Oncorhynchus mykiss): 50 mg/L
OCCn1cccn1 [Compound 4, 2-(1H-pyrazol-1-yl)ethan-1-ol]	0.0212	0.2739	
Cc1cc(C)n(CO)n1 [Compound 5, (3,5-dimethyl-1H-pyrazol-1-yl)-methanol]	0.0197	0.0228	
Tolyltriazole [Compound 11, reference compound]	0.0214	0.0995	
